US20200405697A1, “Antitumor Agent” (Taiho Pharmaceutical Co., Ltd, priority 2017, published 2020)
Each block holds one compound with its values, some of them ahead of it.

Experiments:
[1] = target: T1, human RNR (histidine tagged human M1 and human M2 proteins) (Homo sapiens, UniProt P23921); test: Human RNR inhibition effect (dCDP formation from CDP); assay type: biochemical; conditions: 10 μM CDP, 37° C. for 30 minutes, read-out: RNR inhibitory activity IC50
T1 construct: made in house; host or cells: Escherichia coli
T1 sequence (P23921 1-792): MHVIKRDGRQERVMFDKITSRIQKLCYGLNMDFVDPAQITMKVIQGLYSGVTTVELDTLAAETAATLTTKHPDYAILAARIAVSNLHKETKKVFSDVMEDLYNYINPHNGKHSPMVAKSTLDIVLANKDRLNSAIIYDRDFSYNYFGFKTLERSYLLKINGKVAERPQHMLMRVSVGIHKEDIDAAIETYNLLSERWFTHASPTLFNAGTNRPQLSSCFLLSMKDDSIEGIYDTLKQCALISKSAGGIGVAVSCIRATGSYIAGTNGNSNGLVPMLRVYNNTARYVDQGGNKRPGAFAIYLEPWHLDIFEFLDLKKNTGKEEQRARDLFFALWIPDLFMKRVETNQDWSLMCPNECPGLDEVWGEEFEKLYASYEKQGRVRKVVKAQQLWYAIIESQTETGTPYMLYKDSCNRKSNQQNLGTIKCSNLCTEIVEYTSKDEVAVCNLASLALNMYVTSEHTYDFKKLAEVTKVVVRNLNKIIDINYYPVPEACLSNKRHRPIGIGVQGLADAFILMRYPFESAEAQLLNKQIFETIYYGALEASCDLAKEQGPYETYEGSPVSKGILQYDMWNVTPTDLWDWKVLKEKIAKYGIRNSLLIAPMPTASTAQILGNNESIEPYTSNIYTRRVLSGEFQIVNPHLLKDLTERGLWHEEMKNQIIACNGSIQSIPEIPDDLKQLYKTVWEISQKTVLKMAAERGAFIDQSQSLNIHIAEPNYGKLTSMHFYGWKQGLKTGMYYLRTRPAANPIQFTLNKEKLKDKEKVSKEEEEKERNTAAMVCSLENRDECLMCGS
How it was run: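 His-tagged human M1 (isoform 1) and N-terminal 59-aa-truncated M2 (isoform 2), E. coli-expressed, Ni-purified, preincubated 20 min with compound (1% DMSO). Reaction with 10 μM CDP, 2 mM ATP, 0.24 mM NADPH, 6 mM DTT, 4 mM Mg acetate, 100 mM KCl, 50 mM HEPES pH 7.2, 30 min at 37° C. dCDP formed quantified by reverse-phase HPLC after heat stop.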

MV-4-11 = test: Antitumor effect in human-derived blood cancer cell line (MV-4-11) subcutaneous transplantation model (in vivo); set-up: species or system nude mouse (BALB/cA Jcl-nu/nu); conditions: oral, 100 mg/kg/day once per day for 14 days; RTV vs control group, Student-t test, p<0.05
Description: A human-derived blood cancer cell line MV-4-11 was transplanted subcutaneously into a nude mouse (BALB/cA Jcl-nu/nu, CLEA Japan, Inc.), and at the time when the tumor volume of the nude mouse on which the engrafted tumor reached 100 to 300 mm^3, four mice were assigned to each group by random stratification so that the average of the tumor volumes of each group was uniform (day 0), and the Example compound was orally administered daily at 100 mg/kg/day once per day for 14 days. Example Compound dosing solutions were prepared using 0.5% HPMC.
An electric balance for animals was used in body weight measurement. Rate of change in body weight on day n (BWCn) from body weight on day n (BWn) was calculated according to the following equation.
Rate of change in body weight BWCn (%)=(BWn−BW0)/BW0×100
Tumor volume (TV) was calculated according to the following equation by sandwiching and measuring the major axis and the minor axis with a digital caliper.
Tumor volume (mm^3)=Major axis (mm)×Minor axis (mm)×Minor axis (mm)/2
In order to compare the chronological transition of proliferation of tumor for the administration of each compound, relative tumor volume (RTV) setting the tumor volume at the time of grouping as 1 as the tumor proliferation rate was calculated according to the following formula, and the transition of the average value of RTV of each individual are shown in FIGS. 1 to 4.
RTV=(tumor volume at the day of tumor volume measurement)/(tumor volume at the time of the grouping)

HCC 1806 cells = test: Cell proliferation inhibitory effect on human breast cancer cell line; assay type: cell-based; conditions: HCC1806, 72 h, crystal violet, read-out: Cell growth suppression IC50
Description: Human derived breast cancer cell line HCC 1806 cells (American Type Culture Collection, ATCC) were daily passaged at a cell density not exceeding 80% in ATCC recommended Roswell Park Memorial Institute medium (RPMI-1640) containing 10% fetal bovine serum (FBS). In order to start the test of cell proliferation inhibitory activity, HCC 1806 cells were suspended in the above medium, after seeing at 180 μL in each well of a 96-well flat bottom plate so that the number of cells per well was 2,000, the cells were cultured at 37° C. for 1 day in an incubator containing 5% carbon dioxide gas.
On the next day, the Example compound was dissolved in DMSO, and 20 μL of a drug additive solution diluted serially with distilled water to 10 times of the final concentration was added to each well of the culture plate of the cells, and the cells were cultured at 37° C. for 72 hours in an incubator containing 5% carbon dioxide gas. After culturing for 72 hours, 20 μL of glutaraldehyde was added to each well and allowed to stand for 30 minutes, then the plate was washed 10 times with water and was dried. 100 μL of a stain solution (0.05% crystal violet in a 20% methanol solution) was added to each well and allowed to stand for 30 minutes, then the plate was washed 10 times with water and was dried. 100 μL of an extract solution (0.1 N NaH2PO4: 100% ethanol=1:1) was added to each well and mixed, and the mixture was measured at a wavelength of 540 nm using a plate reader (MTP-450 manufactured by Corona Electric Co., Ltd.).
The growth inhibition rate was calculated from the following formula, and the concentration (IC50 (μM)) of a compound inhibiting 50% was determined.
Growth inhibition rate (%){(C-B)−(T-B)}(C-B)×100
T: Absorbance of well to which Example compound was added
C: Absorbance of wells to which no Example compound was added
B: Absorbance of wells to which no cell was added

[2] = tested on: HCT116 (Human large intestine cancer cell line); test: Effect of combination of sulfonamide compound and other antitumor agent (CellTiter-Glo, combination index): HCT116; assay type: cell-based
Description: (§1) Each cell line was seeded at 90 L/well to a 96-well culture plate (Thermo Fisher Scientific, Inc.) according to the above tables. The cell-seeded plate was cultured in an incubator set to 37° C. and 500 CO2. On the day following seeding, varying concentrations of the sulfonamide compound and the other antitumor agent were added in combination to the cells. […] The serial dilutions of each compound, or DW was added at 5μL/well to the plate such that each compound and DW, or the sulfonamide compound and the other antitumor agent were combined. […] The plate after the addition was cultured at 37° C. for 3 days under 5% CO2 conditions.
(§2) Three days later, CellTiter-Glo(R) 2.0 Reagent (Promega Corporation) was added at 100 μL/well, and the amount of luminescence was measured using a plate reader EnSpire(R) Multimode Plate Reader (PerkinElmer Co., Ltd.).
(§3) An average value from 3 wells was calculated as to each drug condition from the obtained data, and cell survival rate normalized against control wells supplemented with the vehicle (DW) was calculated. A Fa (fractional inhibition) value was calculated by subtracting the cell survival rate from 1.

[3] = tested on: A549 (Human lung cancer cell line); test: Effect of combination of sulfonamide compound and other antitumor agent (CellTiter-Glo, combination index): A549
Description: as §1, §2, §3

[4] = tested on: CFPAC-1 (Human pancreatic cancer cell line); test: Effect of combination of sulfonamide compound and other antitumor agent (CellTiter-Glo, combination index): CFPAC-1;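 also: cells exposed to both agents together for 3 days, viability read by luminescence, normalized to vehicle-treated control wells, mean of triplicate wells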
Description: as §1, §2, §3

[5] = Example Compound 5 567 nM + Prexasertib 10.7 nM
[6] = Example Compound 5 851 nM + Prexasertib 16.1 nM
[7] = Example Compound 14 1000 nM + Prexasertib 7.14 nM
[8] = Example Compound 14 1500 nM + Prexasertib 10.7 nM
[9] = Example Compound 14 2250 nM + Prexasertib 16.1 nM
[10] = Example Compound 209A 187 nM + Prexasertib 7.13 nM
[11] = Example Compound 209A 281 nM + Prexasertib 10.7 nM
[12] = Example Compound 209A 421 nM + Prexasertib 16.1 nM
[13] = HCT116, Example Compound 235A 317 nM combined with Prexasertib 7.15 nM, molar ratio 1:0.02255
[14] = HCT116, Example Compound 235A 475 nM combined with Prexasertib 10.7 nM, molar ratio 1:0.02255
[15] = HCT116, Example Compound 235A 712 nM combined with Prexasertib 16.1 nM, molar ratio 1:0.02255
[16] = Example Compound 14 874 nM + Prexasertib 1.97 nM
[17] = Example Compound 14 1310 nM + Prexasertib 2.96 nM
[18] = Example Compound 14 1970 nM + Prexasertib 4.45 nM
[19] = Example Compound 209A 188 nM + Prexasertib 1.97 nM
[20] = Example Compound 209A 282 nM + Prexasertib 2.96 nM
[21] = Example Compound 235A 231 nM + Prexasertib 1.97 nM
[22] = Example Compound 235A 346 nM + Prexasertib 2.96 nM
[23] = Example Compound 235A 520 nM + Prexasertib 4.44 nM
[24] = Example Compound 5 311 nM + Prexasertib 1.89 nM
[25] = Example Compound 5 466 nM + Prexasertib 2.84 nM
[26] = Example Compound 5 700 nM + Prexasertib 4.26 nM
[27] = Example Compound 14 616 nM + Prexasertib 1.89 nM
[28] = Example Compound 14 925 nM + Prexasertib 2.84 nM
[29] = Example Compound 14 1390 nM + Prexasertib 4.27 nM
[30] = Example Compound 209A 151 nM + Prexasertib 1.90 nM
[31] = Example Compound 209A 226 nM + Prexasertib 2.84 nM
[32] = Example Compound 235A 214 nM + Prexasertib 1.89 nM
[33] = Example Compound 235A 321 nM + Prexasertib 2.84 nM
[34] = Example Compound 235A 481 nM + Prexasertib 4.26 nM

- IC50 [1]: 0.1 µM
Compound: Cc1c(Cl)ccc(F)c1[C@@H](C)[C@H](NS(=O)(=O)c1ccc(Cl)c2c1OCCC2(C)O)c1n[nH]c(=O)o1 (single isomer, unassigned) [Example 209A]
- antitumor effect (relative tumor volume, RTV) (MV-4-11): antitumor effect

- IC50 [1]: 0.08 µM
Compound: Cc1c(Br)ccc(F)c1[C@@H](C)[C@H](NS(=O)(=O)c1ccc(Cl)c2c1OCCC2(C)O)c1n[nH]c(=O)o1 (single isomer, unassigned) [Example 222A]
- antitumor effect (relative tumor volume, RTV) (MV-4-11): antitumor effect

Compound: Cc1c(Cl)ccc(F)c1[C@@H](C)[C@H](NS(=O)(=O)c1ccc(Cl)c2c1OCCC2(C)O)c1n[nH]c(=O)o1 (single isomer, unassigned) [Example 228A]
- antitumor effect (relative tumor volume, RTV) (MV-4-11): antitumor effect

- IC50 [1]: 0.08 µM
- IC50 (HCC 1806 cells): 0.14 µM
Compound: [2H]C([2H])([2H])C1(O)CCOc2c(S(=O)(=O)N[C@H](c3n[nH]c(=O)o3)[C@H](C)c3c(F)ccc(Cl)c3C)ccc(Cl)c21 (single isomer, unassigned) [Example 228A]

- IC50 [1]: 0.08 µM
Compound: Cc1ccc(F)c([C@@H](C)[C@H](NS(=O)(=O)c2ccc(Cl)c3c2OCCC3O)c2n[nH]c(=O)o2)c1C (single isomer, unassigned) [Example 235A]
- antitumor effect (relative tumor volume, RTV) (MV-4-11): antitumor effect

- IC50 [1]: 0.25 µM
Compound: Cc1c(Cl)ccc(F)c1[C@@H](C)[C@H](NS(=O)(=O)c1ccc(Cl)cc1C(N)=O)c1n[nH]c(=O)o1 [Example 14, 5-chloro-2-(N-((1S,2R)-2-(3-chloro-6-fluoro-2-methylphenyl)-1-(5-oxo-4,5-dihydro-1,3,4-oxadiazol-2-yl)propyl)sulfamoyl)benzamide]
- antitumor effect (relative tumor volume, RTV) (MV-4-11): antitumor effect

- IC50 [1]: 0.14 µM
- IC50 (HCC 1806 cells): 0.14 µM
Compound: CC(=O)OC1(C)CCOc2c(S(=O)(=O)N[C@H](c3n[nH]c(=O)o3)[C@H](C)c3c(F)ccc(C)c3C)ccc(Cl)c21 (stereo partly drawn) [Example 95, 5-chloro-8-(N-((1S,2R)-2-(6-fluoro-2,3-dimethylphenyl)-1-(5-oxo-4,5-dihydro-1,3,4-oxadiazol-2-yl)propyl)sulfamoyl)-4-methylchroman-4-ylacetate]

Compound: COc1cccc(OCCCN)c1-c1cc(Nc2cnc(C#N)cn2)n[nH]1 [Prexasertib, prexasertib]
- CI value [2, 5]: 0.289
- Fa value [2, 5]: 0.7563
- CI value [2, 6]: 0.180
- Fa value [2, 6]: 0.9499
- CI value [2, 7]: 0.535
- Fa value [2, 7]: 0.3054
- CI value [2, 8]: 0.208
- Fa value [2, 8]: 0.8469
- CI value [2, 9]: 0.174
- Fa value [2, 9]: 0.9453
- CI value [2, 10]: 0.792
- Fa value [2, 10]: 0.1703
- CI value [2, 11]: 0.230
- Fa value [2, 11]: 0.8191
- CI value [2, 12]: 0.173
- Fa value [2, 12]: 0.9441
- CI value [2, 13]: 0.557
- Fa value [2, 13]: 0.3131
- CI value [2, 14]: 0.224
- Fa value [2, 14]: 0.8595
- CI value [2, 15]: 0.197
- Fa value [2, 15]: 0.9459
- CI value [3, 16]: 0.277
- Fa value [3, 16]: 0.4973
- CI value [3, 17]: 0.193
- Fa value [3, 17]: 0.7864
- CI value [3, 18]: 0.177
- Fa value [3, 18]: 0.8986
- CI value [3, 19]: 0.258
- Fa value [3, 19]: 0.5015
- CI value [3, 20]: 0.189
- Fa value [3, 20]: 0.7685
- CI value [3, 21]: 0.331
- Fa value [3, 21]: 0.4315
- CI value [3, 22]: 0.191
- Fa value [3, 22]: 0.7784
- CI value [3, 23]: 0.174
- Fa value [3, 23]: 0.8915
- CI value [4, 24]: 0.579
- Fa value [4, 24]: 0.3644
- CI value [4, 25]: 0.413
- Fa value [4, 25]: 0.6946
- CI value [4, 26]: 0.525
- Fa value [4, 26]: 0.7564
- CI value [4, 27]: 0.886
- Fa value [4, 27]: 0.2455
- CI value [4, 28]: 0.452
- Fa value [4, 28]: 0.6771
- CI value [4, 29]: 0.514
- Fa value [4, 29]: 0.7725
- CI value [4, 30]: 0.735
- Fa value [4, 30]: 0.3163
- CI value [4, 31]: 0.558
- Fa value [4, 31]: 0.6872
- CI value [4, 32]: 0.645
- Fa value [4, 32]: 0.3469
- CI value [4, 33]: 0.344
- Fa value [4, 33]: 0.6687
- CI value [4, 34]: 0.372
- Fa value [4, 34]: 0.7578
